Laboratory results taken from a compilation of properties of binary mixtures (doi:10.1007/s10953-013-9990-0).

Assay: xn = mol fraction of the nth substance listed
Conditions: 101 kPa

CCCC[n+]1cccc(C)c1.O=S(=O)([N-]S(=O)(=O)C(F)(F)F)C(F)(F)F + CCO
speed of sound [m/s]
Conditions	298.15 K	303.15 K	308.15 K
x2 = 0	–	1237.1	–
x2 = 0.0533	–	–	1223.8
x2 = 0.0924	1244.5	1233.1	–
x2 = 0.1963	1239.3	1227.9	1216.6
x2 = 0.3011	1233.2	1221.7	1210.3
x2 = 0.3959	1226.5	1214.9	1203.4
x2 = 0.4982	–	1206	1194.3
x2 = 0.599	–	–	1183.2
x2 = 0.6829	1195.9	1183.6	1171.3
x2 = 0.7355	1187.7	1175.2	–
x2 = 0.8008	1176.4	1163.2	1150.3
x2 = 0.8991	1156.9	1142.8	1128.7
x2 = 0.9436	1149.9	1134.8	1119.9

CCCC[N+]1(C)CCCC1.O=S(=O)([N-]S(=O)(=O)C(F)(F)F)C(F)(F)F + CC(C)O
speed of sound [m/s]
Conditions	298.15 K	303.15 K	308.15 K
x2 = 0	1269.3	–	1247.1
x2 = 0.0593	1264.9	1253.7	1243.5
x2 = 0.1319	–	1248.7	1237.4
x2 = 0.2344	1250.8	1239.1	–
x2 = 0.3929	1234.8	1222.9	1211.2
x2 = 0.4935	1222.3	1210.2	1198.1
x2 = 0.5927	1207.5	–	1182.9
x2 = 0.718	1184.1	1171.2	1158.4
x2 = 0.8015	1165.1	1151.8	1138.5
x2 = 0.9018	1143	1129.1	1115.9
x2 = 0.9491	1138.1	1122.5	1106.8

CCCC[n+]1cccc(C)c1.O=S(=O)([N-]S(=O)(=O)C(F)(F)F)C(F)(F)F + CCCO
speed of sound [m/s]
Conditions	298.15 K	303.15 K	308.15 K
x2 = 0	1248.3	1237.1	1226
x2 = 0.0431	–	1235.4	1224.3
x2 = 0.0889	1244.5	1233.4	1222.3
x2 = 0.1564	1241.8	–	1219.1
x2 = 0.2913	–	1223.2	1211.8
x2 = 0.3788	1229.5	1217.9	1206.3
x2 = 0.5665	1215.6	1203.5	1191.5
x2 = 0.5901	–	1201.4	1189.3
x2 = 0.6913	1204	1191.4	–
x2 = 0.8006	1194.1	1180.8	1167.7
x2 = 0.8947	1189.3	1174.9	–
x2 = 0.9467	1193.4	1178	1162.7

CCO + CCCC[N+]1(C)CCCC1.O=S(=O)([N-]S(=O)(=O)C(F)(F)F)C(F)(F)F
x1 = 1
Conditions	speed of sound [m/s]
303.15 K	1126.7
308.15 K	1109.8

CCO + CCCC[n+]1cccc(C)c1.O=S(=O)([N-]S(=O)(=O)C(F)(F)F)C(F)(F)F
x1 = 1
Conditions	speed of sound [m/s]
298.15 K	1143.6
303.15 K	1126.7
308.15 K	1109.8

CCCO + CCCC[N+]1(C)CCCC1.O=S(=O)([N-]S(=O)(=O)C(F)(F)F)C(F)(F)F
x1 = 1
Conditions	speed of sound [m/s]
298.15 K	1206.4
303.15 K	1189.3

CC(C)O + CCCC[N+]1(C)CCCC1.O=S(=O)([N-]S(=O)(=O)C(F)(F)F)C(F)(F)F
x1 = 1
Conditions	speed of sound [m/s]
298.15 K	1139.6
303.15 K	1122
308.15 K	1104.4

CC(C)O + CCCC[n+]1cccc(C)c1.O=S(=O)([N-]S(=O)(=O)C(F)(F)F)C(F)(F)F
x1 = 1
Conditions	speed of sound [m/s]
298.15 K	1139.6
303.15 K	1122

CCCO + CCCC[n+]1cccc(C)c1.O=S(=O)([N-]S(=O)(=O)C(F)(F)F)C(F)(F)F
x1 = 1
Conditions	speed of sound [m/s]
298.15 K	1206.4
303.15 K	1189.3
308.15 K	1172.3
